Data published in patent US4472392A, “Sulfonate containing ester prodrugs of corticosteroids” (The Upjohn Company, priority 1983, dated 1984).
Structures can show the parent of a compound that is named as a salt.

How the values were obtained:
[1] = Estimated t90% (time for 10% hydrolysis) in dilute aqueous solution at 25° C; type: physicochemical; details: extrapolated from rate constants at pH 2 and 8 (0.01 ionic strength buffers) to the pH at which hydrolysis is a minimum
Protocol: The solution stability of the compounds of Formula I varies to some extent depending on the nature of X and Y and the values for m and n. Shown in Table I are estimates of t90% (time for 10% hydrolysis) of various derivatives in dilute aqueous solutions at 25° C. These estimates are based on an extrapolation of the rate constants for acid and base catalyzed hydrolysis to the pH at which hydrolysis is a minimum. The rate constants for acid and base catalyzed hydrolysis were determined at pH 2 and 8, respectively, in 0.01 ionic strength buffers.

[2] = Base catalyzed hydrolysis rate in concentrated versus dilute solution; type: physicochemical; details: 0.11M solution versus 5×10^-4 M solution
Description: The actual shelf-life of formulations of the above compounds would be expected to differ from the above estimates for two reasons: (1) The solubility of the parent corticosteroid formed on hydrolysis may be exceeded prior to 10% degradation of the ester. Micelle formation by the intact prodrugs of Formula I results in solubilization of free corticosteroid thereby prolonging shelf-life. […]. The degree of solubilization varies with the ester concentration, nature of the pro-moiety, and the structure of the corticosteroid. (2) Micelle formation by the intact prodrug in concentrated solutions results in stabilization of the ester linkage toward base catalyzed hydrolysis. For example, the base catalyzed hydrolysis rate in a 0.11M solution of the compound of Example 1 is less than one-half the rate in a 5×10^-4 M solution.

[3] = M. Kawamura et al., Yakugaku Zasshi, 91, 871 (1971); cited from earlier work

Compound | Estimated t90% (time for 10% hydrolysis) [1] | base catalyzed hydrolysis rate relative to the rate in dilute solution [2] | activity in mice [3]
C[C@H]1C[C@@H]2[C@H]([C@@H](O)C[C@@]3(C)[C@H]2CC[C@]3(O)C(=O)COC(=O)CCCCCCC(=O)N(C)CCS(=O)(=O)O)[C@@]2(C)C=CC(=O)C=C12 [Example 3, N-Methyltaurine amide of methylprednisolone 21-hemisuberate (Na salt)] | 4.1 years |  | 
C[C@H]1C[C@@H]2[C@H]([C@@H](O)C[C@@]3(C)[C@H]2CC[C@]3(O)C(=O)COC(=O)CCC(=O)N(C)CCS(=O)(=O)O)[C@@]2(C)C=CC(=O)C=C12 [Example 1, N-Methyl taurine amide of methylprednisolone 21-hemisuccinate (Na salt)] | 3.9 years | less than one-half | 
C[C@H]1C[C@@H]2[C@H]([C@@H](O)C[C@@]3(C)[C@H]2CC[C@]3(O)C(=O)COC(=O)CCCCCCC(=O)NCCS(=O)(=O)O)[C@@]2(C)C=CC(=O)C=C12 [Example 2, Taurine amide of methylprednisolone 21-suberate (Na salt)] | 3.9 years |  | 
C[C@]12CCC(=O)C=C1CC[C@@H]1[C@@H]2[C@@H](O)C[C@@]2(C)[C@H]1CC[C@]2(O)C(=O)COS(=O)(=O)O [21-sulfate of hydrocortisone] |  |  | inactive
